Patent publication US12398125B2, “Nitrogen-containing saturated heterocyclyl derivative” (Sumitomo Pharma Co., Ltd., priority 2022, dated 2025)

Assays:
Assay type in all cases: cell-based
[1] = system: α-synuclein aggregate in neurospheroid prepared from human iPS cells with a mutation in PLA2G6 gene; experiment: Test 2: suppressing the accumulation of α-synuclein aggregate with neurospheroid; details: 120 h, DMSO = 100%, compound added day 4, measured day 9 after induction of differentiation; for activity at 0.1 µM: 100 nM, read-out: Amount of aggregate (%) 100 nM; for activity at 1 µM: 1000 nM, read-out: Amount of aggregate (%) 1000 nM
Procedure: Test 2: Evaluation of Suppressing the Accumulation of α-Synuclein Aggregate with Neurospheroid Prepared from Human iPS Cells with a Mutation in PLA2G6 Gene
(§1) (1) Induction of Differentiation from Human iPS Cell to Neural Cell
Neural stem cells were induced from PLA2G6 gene mutant iPS cells with PSC Neuronal Induction Medium (Thermo Fisher Scientific Inc., cat #A1647801). Neurospheroid was prepared from the induced neural stem cells by three-dimensional culture system, and preserved with BrainPhys Neuronal Medium (STEMCELL Technologies, cat #ST-05793) comprising NeuroCult SM1 Neuronal Supplement, N2 Supplement-A, 20 ng/mL BDNF, 20 ng/mL GDNF, 1 mM dibutyryl cAMP, and 200 nM ascorbic acid. Half of the culture medium was replaced on day 2 and day 4 after the induction of differentiation.
The test compound was diluted with the culture medium so as to be twice the final concentration, and an equal volume of the twice-concentrated solution was added to each well when half of the culture medium was replaced on day 4 after induction of differentiation.
(§2) (2) Evaluation of the Amount of α-Synuclein Aggregate
(§3) From the neurospheroid 9 days after the induction of differentiation, proteins were extracted with a TBS solution containing 1% TritionX-100, and the extracted proteins were subjected to a protein analysis with Simple Western system (Protein Simple, Inc., cat #SM-W008) using an α-synuclein antibody (Thermo Fisher Scientific Inc., cat #AHB0261) to measure the amount of the α-synuclein aggregate.
Assuming that the amount of the aggregate in the neurospheroid added with a DMSO solution is 100%, the amount of the aggregate in the neurospheroid added with each test compound was evaluated.

[2] = system: α-synuclein aggregate in neurospheroid prepared from human iPS cells with a mutation in PLA2G6 gene; experiment: Test 3: reducing the accumulation of α-synuclein aggregate with neurospheroid; details: 120 h, DMSO = 100%, compound added day 10, measured day 15 after induction of differentiation; for activity at 0.1 µM: 100 nM, read-out: Amount of aggregate (%) 100 nM; for activity at 1 µM: 1000 nM, read-out: Amount of aggregate (%) 1000 nM
Procedure: Test 3: Evaluation of Reducing the Accumulation of α-Synuclein Aggregate with Neurospheroid Prepared from Human iPS Cells with a Mutation in PLA2G6 Gene (1) Induction of Differentiation from Human iPS Cell to Neural Cell
(§4) Neural stem cells were induced from PLA2G6 gene mutant iPS cells with PSC Neuronal Induction Medium (Thermo Fisher Scientific Inc., cat #A1647801). Neurospheroid was prepared from the induced neural stem cells by three-dimensional culture system, and preserved with BrainPhys Neuronal Medium (STEMCELL Technologies, cat #ST-05793) comprising NeuroCult SM1 Neuronal Supplement, N2 Supplement-A, 20 ng/mL BDNF, 20 ng/mL GDNF, 1 mM dibutyryl cAMP, and 200 nM ascorbic acid. Half of the culture medium was replaced every 3 or 4 days after the induction of differentiation.
The test compound was diluted with the culture medium so as to be twice the final concentration, and an equal volume of the twice-concentrated solution was added to each well when half of the culture medium was replaced on day 10 after induction of differentiation.
as §2
as §3, with “15” for “9”
(§5) The amount of the aggregate in the neurospheroid added with each test compound was measured. Assuming that the amount of the aggregate in the neurospheroid added with a DMSO solution is 100%, the amount of the aggregate in the test samples was evaluated.

[3] = system: α-synuclein aggregate in dopamine neurospheroid prepared from human iPS cells with a mutation in PLA2G6 gene; experiment: Test 5: suppressing the accumulation of α-synuclein aggregate with dopamine neurospheroid; details: 120 h, DMSO = 100%, compound added day 21, measured day 26, PLA2G6 mutant; for activity at 0.1 µM: 100 nM, read-out: Amount of aggregate (%) 100 nM; for activity at 1 µM: 1000 nM, read-out: Amount of aggregate (%) 1000 nM
Procedure: Test 5: Evaluation of Suppressing the Accumulation of α-Synuclein Aggregate with Dopamine Neurospheroid Prepared from Human iPS Cells with a Mutation in PLA2G6 Gene
as §1
as §4, with “Dopaminergic progenitor” for “Neural stem”, “dopaminergic neuron differentiation kit” for “PSC Neuronal Induction Medium”, “#A3147701). Dopamine neurospheroid” for “#A1647801). Neurospheroid”, “dopaminergic progenitor” for “neural stem”
The test compound was diluted with the culture medium so as to be twice the final concentration, and an equal volume of the twice-concentrated solution was added to each well when half of the culture medium was replaced on day 21 after induction of differentiation.
as §2
as §3, with “From the dopamine neurospheroid 26” for “From the neurospheroid 9”, “dopamine neurospheroid 26 days after” for “the neurospheroid 9 days after”
as §5

[4] = system: α-synuclein aggregate in dopamine neurospheroid prepared from human iPS cells with a mutation in GBA1 gene; experiment: Test 11: reducing the accumulation of α-synuclein aggregate with dopamine neurospheroid; details: DMSO = 100%, compound added day 40, measured day 44, GBA1 mutant
Procedure: Test 11: Evaluation of Reducing the Accumulation of α-Synuclein Aggregate with Dopamine Neurospheroid Prepared from Human iPS Cells with a Mutation in GBA1 Gene
as §1
as §4, with “Dopaminergic progenitor” for “Neural stem”, “GBA1” for “PLA2G6”, “dopaminergic neuron differentiation kit” for “PSC Neuronal Induction Medium”, “#A3147701). Dopamine neurospheroid” for “#A1647801). Neurospheroid”, “dopaminergic progenitor” for “neural stem”, “days.” for “days after the induction of differentiation.”
The test compound was diluted with the culture medium so as to be twice the final concentration, and an equal volume of the twice-concentrated solution was added to each well when half of the culture medium was replaced on day 40 after induction of differentiation.
as §2
as §3, with “From the dopamine neurospheroid 44” for “From the neurospheroid 9”, “dopamine neurospheroid 44 days after” for “the neurospheroid 9 days after”
as §5

| Compound | activity at 0.1 µM [1] [%] | activity at 1 µM [1] [%] | activity at 0.1 µM [2] [%] | activity at 1 µM [2] [%] | activity at 0.1 µM [3] [%] | activity at 1 µM [3] [%] | Amount of aggregate (%) 100 nM [4] [%] | Amount of aggregate (%) 1000 nM [4] [%] |
| --- | --- | --- | --- | --- | --- | --- | --- | --- |
| CN1CC(C)(C(=O)N2CCC(c3cncc(C(F)(F)F)c3)CC2)C1 [Example 44, (1,3-dimethylazetidin-3-yl){4-[5-(trifluoromethyl)pyridin-3-yl]piperidin-1-yl}methanone] | 20 | 0 | 15 | 16 | 18 | 26 | 20 | 24 |
| CC1(C(=O)N2CCC(c3cncc(C(F)(F)F)c3)CC2)COC1 [Example 2, (3-methyloxetan-3-yl){4-[5-(trifluoromethyl)pyridin-3-yl]piperidin-1-yl}methanone] | 9 | 1 | 20 | 17 | 16 | 7 | 21 | 20 |
